Assay results: patent US8933230B2, “Phosphorus-containing group-substituted quinoline, its preparation process, medical composition containing the compounds and application” (priority 2011, dated 2015)

Key:
Assay in all cases: KinomeScan kinase panel
Format in all cases: binding
[1] = molecular target: T1, ABL1(F317L)-phosphorylated (Homo sapiens, UniProt P00519, F317L)
T1 construct: purchased DiscoveRx Corporation (KinomeScan)
Protocol: (§1) In this example, the compound prepared in Example 10, N1-[4-[[7-[[1-(diethoxyphosphorylmethyl)-4-piperidinyl]methoxyl]-6-methoxyl-4-quinolyl]oxyl]-3-fluorophenyl]-N1′-(4-fluorophenyl)cyclopropane-1,1-dicarboxamide is tested for the inhibitory effect in the 442-kinase panel of KinomeScan™ (www.kinomescan.com) from DiscoveRx Corporation (4215 Sorrento Valley Blvd, San Diego, Calif. 92121) at 1000 nM of the compound concentration, the results are shown in the following Table 5:
(§2) For the detailed information of the screening technique, see Fabian, M. A. et al, Nat., Biotechnol. 2005, 23, 329 and Karaman, M. W. et al, Nat., Biotechnol. 2008, 26, 127. It can be seen from the following representative results that, the compound according to the present invention has significant inhibitory effect on kinases including c-Met, KDR or VEGFR2, RET, PDGFR-β, c-KIT, Flt3, MEK5, DDR1, LOK, CSF1R, EPHA7, EPHA8, EPHB6, MKNK2, BLK, HIPK4, HCK, Flt4 and the mutants thereof

AMPK-alpha2 = molecular target: T2, AMPK-alpha2 (Homo sapiens, UniProt P54646)
T2 construct: purchased DiscoveRx Corporation (KinomeScan)
Protocol: as §1, §2

AXL = molecular target: T3, AXL (Homo sapiens, UniProt P30530)
T3 construct: purchased DiscoveRx Corporation (KinomeScan)
Protocol: as §1, §2

CSF1R = molecular target: T4, CSF1R (Homo sapiens, UniProt P07333)
T4 construct: purchased DiscoveRx Corporation (KinomeScan)
Protocol: as §1, §2

DCAMKL1 = molecular target: T5, DCAMKL1 (Homo sapiens, UniProt O15075)
T5 construct: purchased DiscoveRx Corporation (KinomeScan)
Protocol: as §1, §2

DCAMKL2 = molecular target: T6, DCAMKL2 (Homo sapiens, UniProt Q8N568)
T6 construct: purchased DiscoveRx Corporation (KinomeScan)
Protocol: as §1, §2

DRAK1 = molecular target: T7, DRAK1 (Homo sapiens, UniProt Q9UEE5)
T7 construct: purchased DiscoveRx Corporation (KinomeScan)
Protocol: as §1, §2

EGFR(G719C) = molecular target: T8, EGFR(G719C) (Homo sapiens, UniProt P00533, G719C)
T8 construct: purchased DiscoveRx Corporation (KinomeScan)
Protocol: as §1, §2

ERK4 = molecular target: T9, ERK4 (Homo sapiens, UniProt P31152)
T9 construct: purchased DiscoveRx Corporation (KinomeScan)
Protocol: as §1, §2

HCK = molecular target: T10, HCK (Homo sapiens, UniProt P08631)
T10 construct: purchased DiscoveRx Corporation (KinomeScan)
Protocol: as §1, §2

HIPK3 = molecular target: T11, HIPK3 (Homo sapiens, UniProt Q9H422)
T11 construct: purchased DiscoveRx Corporation (KinomeScan)
Protocol: as §1, §2

[2] = molecular target: T12, JAK1(JH1domain-catalytic) (Homo sapiens, UniProt P23458)
T12 construct: JAK1(JH1domain-catalytic); purchased DiscoveRx Corporation (KinomeScan)
Protocol: as §1, §2

[3] = molecular target: T13, JAK3(JH1domain-catalytic) (Homo sapiens, UniProt P52333)
T13 construct: JAK3(JH1domain-catalytic); purchased DiscoveRx Corporation (KinomeScan)
Protocol: as §1, §2

LATS2 = molecular target: T14, LATS2 (Homo sapiens, UniProt Q9NRM7)
T14 construct: purchased DiscoveRx Corporation (KinomeScan)
Protocol: as §1, §2

MAPKAPK2 = molecular target: T15, MAPKAPK2 (Homo sapiens, UniProt P49137)
T15 construct: purchased DiscoveRx Corporation (KinomeScan)
Protocol: as §1, §2

MST4 = molecular target: T16, MST4 (Homo sapiens, UniProt Q9P289)
T16 construct: purchased DiscoveRx Corporation (KinomeScan)
Protocol: as §1, §2

MUSK = molecular target: T17, MUSK (Homo sapiens, UniProt O15146)
T17 construct: purchased DiscoveRx Corporation (KinomeScan)
Protocol: as §1, §2

NDR1 = molecular target: T18, NDR1 (Homo sapiens, UniProt Q15208)
T18 construct: purchased DiscoveRx Corporation (KinomeScan)
Protocol: as §1, §2

NEK1 = molecular target: T19, NEK1 (Homo sapiens, UniProt Q96PY6)
T19 construct: purchased DiscoveRx Corporation (KinomeScan)
Protocol: as §1, §2

NEK5 = molecular target: T20, NEK5 (Homo sapiens, UniProt Q6P3R8)
T20 construct: purchased DiscoveRx Corporation (KinomeScan panel)
Protocol: as §1, §2

PAK3 = molecular target: T21, PAK3 (Homo sapiens, UniProt O75914)
T21 construct: purchased DiscoveRx Corporation (KinomeScan panel)
Protocol: as §1, §2

PIK3CB = molecular target: T22, PIK3CB (Homo sapiens, UniProt P42338)
T22 construct: purchased DiscoveRx Corporation (KinomeScan)
Protocol: as §1, §2

PIM2 = molecular target: T23, PIM2 (Homo sapiens, UniProt Q9P1W9)
T23 construct: purchased DiscoveRx Corporation (KinomeScan)
Protocol: as §1, §2

PYK2 = molecular target: T24, PYK2 (Homo sapiens, UniProt Q14289)
T24 construct: purchased DiscoveRx Corporation
Protocol: as §1, §2

RIPK5 = molecular target: T25, RIPK5 (Homo sapiens, UniProt Q6XUX3)
T25 construct: purchased DiscoveRx Corporation
Protocol: as §1, §2

[4] = molecular target: T26, RSK1(Kin.Dom.1-N-terminal) (Homo sapiens, UniProt Q15418)
T26 construct: Kin.Dom.1; purchased DiscoveRx Corporation
Protocol: as §1, §2

[5] = molecular target: T27, RSK3(Kin.Dom.2-C-terminal) (Homo sapiens, UniProt Q15349)
T27 construct: Kin.Dom.2; purchased DiscoveRx Corporation (KinomeScan)
Protocol: as §1, §2

SRPK2 = molecular target: T28, SRPK2 (Homo sapiens, UniProt P78362)
T28 construct: purchased DiscoveRx Corporation (KinomeScan)
Protocol: as §1, §2

STK16 = molecular target: T29, STK16 (Homo sapiens, UniProt O75716)
T29 construct: purchased DiscoveRx Corporation (KinomeScan)
Protocol: as §1, §2

TEC = molecular target: T30, TEC (Homo sapiens, UniProt P42680)
T30 construct: purchased DiscoveRx Corporation (KinomeScan)
Protocol: as §1, §2

TGFBR1 = molecular target: T31, TGFBR1 (Homo sapiens, UniProt P36897)
T31 construct: purchased DiscoveRx Corporation (KinomeScan)
Protocol: as §1, §2

TRAK = molecular target: T32, TRAK (Homo sapiens, UniProt P04629)
T32 construct: purchased DiscoveRx Corporation (KinomeScan)
Protocol: as §1, §2

TTK = molecular target: T33, TTK (Homo sapiens, UniProt P33981)
T33 construct: purchased DiscoveRx Corporation (KinomeScan)
Protocol: as §1, §2

VRK2 = molecular target: T34, VRK2 (Homo sapiens, UniProt Q86Y07)
T34 construct: purchased DiscoveRx Corporation (KinomeScan service)
Protocol: as §1, §2

T23 sequence (Q9P1W9 whole entry): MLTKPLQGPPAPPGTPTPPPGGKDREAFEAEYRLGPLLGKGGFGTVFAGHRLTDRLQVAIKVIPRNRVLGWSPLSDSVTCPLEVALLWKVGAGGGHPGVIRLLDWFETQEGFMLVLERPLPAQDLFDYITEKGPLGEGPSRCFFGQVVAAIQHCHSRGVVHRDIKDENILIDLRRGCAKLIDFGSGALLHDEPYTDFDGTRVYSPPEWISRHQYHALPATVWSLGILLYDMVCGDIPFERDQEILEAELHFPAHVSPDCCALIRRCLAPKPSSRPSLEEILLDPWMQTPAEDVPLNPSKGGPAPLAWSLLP
T11 sequence (Q9H422 whole entry): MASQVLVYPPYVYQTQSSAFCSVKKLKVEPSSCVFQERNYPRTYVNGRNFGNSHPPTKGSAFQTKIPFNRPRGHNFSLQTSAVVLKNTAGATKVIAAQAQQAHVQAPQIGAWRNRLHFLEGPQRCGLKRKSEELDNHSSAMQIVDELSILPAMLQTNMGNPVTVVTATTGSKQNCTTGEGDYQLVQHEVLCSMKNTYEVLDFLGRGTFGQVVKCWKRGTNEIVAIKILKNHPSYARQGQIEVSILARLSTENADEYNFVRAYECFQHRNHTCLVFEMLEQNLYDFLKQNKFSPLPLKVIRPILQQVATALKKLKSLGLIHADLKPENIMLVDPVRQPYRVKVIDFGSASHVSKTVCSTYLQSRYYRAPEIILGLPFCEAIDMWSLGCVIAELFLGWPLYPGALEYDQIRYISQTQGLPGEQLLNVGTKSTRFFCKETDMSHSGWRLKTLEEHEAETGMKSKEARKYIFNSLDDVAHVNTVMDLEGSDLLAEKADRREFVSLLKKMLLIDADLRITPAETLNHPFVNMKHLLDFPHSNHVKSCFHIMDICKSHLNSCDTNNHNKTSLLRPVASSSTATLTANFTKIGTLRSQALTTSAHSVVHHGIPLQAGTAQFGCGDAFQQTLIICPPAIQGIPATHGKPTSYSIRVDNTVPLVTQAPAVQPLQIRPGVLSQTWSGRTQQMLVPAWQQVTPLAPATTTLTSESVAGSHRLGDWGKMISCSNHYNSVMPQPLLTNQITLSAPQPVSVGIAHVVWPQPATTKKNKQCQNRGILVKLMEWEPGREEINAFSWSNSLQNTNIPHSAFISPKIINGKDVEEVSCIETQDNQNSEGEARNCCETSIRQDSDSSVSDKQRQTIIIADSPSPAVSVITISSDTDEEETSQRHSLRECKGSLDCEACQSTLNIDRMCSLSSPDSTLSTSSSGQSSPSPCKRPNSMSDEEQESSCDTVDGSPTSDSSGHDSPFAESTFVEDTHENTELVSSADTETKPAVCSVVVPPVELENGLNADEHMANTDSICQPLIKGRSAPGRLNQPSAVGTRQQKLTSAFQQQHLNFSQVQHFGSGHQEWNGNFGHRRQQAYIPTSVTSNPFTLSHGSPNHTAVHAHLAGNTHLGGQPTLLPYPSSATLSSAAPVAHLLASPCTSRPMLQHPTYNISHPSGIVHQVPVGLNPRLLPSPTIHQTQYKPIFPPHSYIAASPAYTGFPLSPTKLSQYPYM
T25 sequence (Q6XUX3 whole entry): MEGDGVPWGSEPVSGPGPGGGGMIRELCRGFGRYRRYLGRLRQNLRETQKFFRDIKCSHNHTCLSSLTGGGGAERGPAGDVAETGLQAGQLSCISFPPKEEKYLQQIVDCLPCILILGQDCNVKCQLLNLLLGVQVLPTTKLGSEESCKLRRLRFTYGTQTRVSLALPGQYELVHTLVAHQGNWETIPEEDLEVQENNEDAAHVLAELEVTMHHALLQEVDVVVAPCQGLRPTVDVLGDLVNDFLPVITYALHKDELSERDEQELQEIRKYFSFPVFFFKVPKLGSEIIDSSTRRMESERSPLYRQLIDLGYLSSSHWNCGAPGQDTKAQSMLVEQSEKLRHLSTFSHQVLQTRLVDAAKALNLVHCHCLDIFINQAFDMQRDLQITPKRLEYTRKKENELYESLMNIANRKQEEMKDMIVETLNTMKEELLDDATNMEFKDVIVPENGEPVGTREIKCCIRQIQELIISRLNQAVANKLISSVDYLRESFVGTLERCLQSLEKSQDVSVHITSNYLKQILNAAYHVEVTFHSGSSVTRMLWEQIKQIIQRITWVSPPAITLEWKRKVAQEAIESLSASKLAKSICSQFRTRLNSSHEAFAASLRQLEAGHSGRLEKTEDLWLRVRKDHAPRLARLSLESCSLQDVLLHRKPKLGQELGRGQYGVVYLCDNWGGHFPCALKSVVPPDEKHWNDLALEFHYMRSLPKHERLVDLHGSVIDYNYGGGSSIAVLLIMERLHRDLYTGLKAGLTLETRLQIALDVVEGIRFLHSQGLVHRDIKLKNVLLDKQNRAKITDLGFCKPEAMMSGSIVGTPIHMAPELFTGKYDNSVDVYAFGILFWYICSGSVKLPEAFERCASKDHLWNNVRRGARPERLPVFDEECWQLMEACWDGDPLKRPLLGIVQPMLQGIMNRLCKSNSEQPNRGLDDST
T20 sequence (Q6P3R8 whole entry): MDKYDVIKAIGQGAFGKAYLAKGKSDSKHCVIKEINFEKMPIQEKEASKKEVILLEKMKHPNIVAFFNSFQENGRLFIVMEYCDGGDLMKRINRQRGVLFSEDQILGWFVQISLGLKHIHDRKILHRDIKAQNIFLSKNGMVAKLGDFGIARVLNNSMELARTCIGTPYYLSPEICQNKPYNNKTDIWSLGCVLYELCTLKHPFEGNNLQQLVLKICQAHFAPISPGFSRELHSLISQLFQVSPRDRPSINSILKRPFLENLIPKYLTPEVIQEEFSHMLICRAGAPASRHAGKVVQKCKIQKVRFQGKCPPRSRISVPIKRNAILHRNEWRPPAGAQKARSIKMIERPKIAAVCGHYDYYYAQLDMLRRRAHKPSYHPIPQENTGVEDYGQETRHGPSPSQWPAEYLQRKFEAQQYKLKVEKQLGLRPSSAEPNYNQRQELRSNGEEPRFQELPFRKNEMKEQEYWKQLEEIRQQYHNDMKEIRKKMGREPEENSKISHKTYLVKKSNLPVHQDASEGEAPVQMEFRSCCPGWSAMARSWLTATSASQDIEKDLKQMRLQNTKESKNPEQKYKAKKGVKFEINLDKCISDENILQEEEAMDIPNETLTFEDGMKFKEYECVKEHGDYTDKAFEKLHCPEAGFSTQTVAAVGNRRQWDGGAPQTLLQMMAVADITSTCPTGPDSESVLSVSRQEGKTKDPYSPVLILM
T1 sequence (P00519 whole entry F317L): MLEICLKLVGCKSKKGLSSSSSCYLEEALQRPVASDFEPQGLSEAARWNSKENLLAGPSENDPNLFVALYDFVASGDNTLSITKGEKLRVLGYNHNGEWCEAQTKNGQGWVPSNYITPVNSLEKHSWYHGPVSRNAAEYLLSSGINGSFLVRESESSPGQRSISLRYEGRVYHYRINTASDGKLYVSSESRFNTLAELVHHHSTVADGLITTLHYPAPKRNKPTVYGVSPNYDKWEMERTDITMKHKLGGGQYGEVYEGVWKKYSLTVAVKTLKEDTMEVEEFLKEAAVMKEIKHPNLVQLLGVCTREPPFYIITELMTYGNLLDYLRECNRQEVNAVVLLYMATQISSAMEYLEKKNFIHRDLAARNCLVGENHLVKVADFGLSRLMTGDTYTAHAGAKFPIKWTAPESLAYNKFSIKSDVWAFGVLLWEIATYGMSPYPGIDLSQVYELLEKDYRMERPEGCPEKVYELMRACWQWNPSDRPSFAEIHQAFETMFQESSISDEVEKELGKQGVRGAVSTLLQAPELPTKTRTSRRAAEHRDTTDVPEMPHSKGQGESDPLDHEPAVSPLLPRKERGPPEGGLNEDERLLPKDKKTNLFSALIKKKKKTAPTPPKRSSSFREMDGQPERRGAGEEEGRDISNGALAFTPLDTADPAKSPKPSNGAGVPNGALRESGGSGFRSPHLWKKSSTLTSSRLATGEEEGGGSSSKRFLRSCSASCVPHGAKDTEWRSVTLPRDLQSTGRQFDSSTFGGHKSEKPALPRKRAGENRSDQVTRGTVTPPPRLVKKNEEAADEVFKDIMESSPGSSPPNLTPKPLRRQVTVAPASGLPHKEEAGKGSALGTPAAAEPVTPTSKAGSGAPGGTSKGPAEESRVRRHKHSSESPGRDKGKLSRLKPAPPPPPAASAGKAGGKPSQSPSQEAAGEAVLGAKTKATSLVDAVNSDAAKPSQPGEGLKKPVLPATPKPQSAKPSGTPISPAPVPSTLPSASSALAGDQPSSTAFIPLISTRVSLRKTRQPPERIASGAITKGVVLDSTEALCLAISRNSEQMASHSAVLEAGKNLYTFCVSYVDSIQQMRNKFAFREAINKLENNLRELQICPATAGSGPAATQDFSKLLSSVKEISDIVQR
T12 sequence (P23458 875-1153 limits assumed): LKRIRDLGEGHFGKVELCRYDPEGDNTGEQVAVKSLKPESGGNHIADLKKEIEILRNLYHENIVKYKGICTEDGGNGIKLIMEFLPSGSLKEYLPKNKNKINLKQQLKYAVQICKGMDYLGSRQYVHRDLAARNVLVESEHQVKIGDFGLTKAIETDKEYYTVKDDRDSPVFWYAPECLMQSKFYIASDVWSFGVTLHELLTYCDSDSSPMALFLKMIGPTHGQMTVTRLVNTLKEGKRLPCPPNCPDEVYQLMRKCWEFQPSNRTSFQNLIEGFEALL
T18 sequence (Q15208 whole entry): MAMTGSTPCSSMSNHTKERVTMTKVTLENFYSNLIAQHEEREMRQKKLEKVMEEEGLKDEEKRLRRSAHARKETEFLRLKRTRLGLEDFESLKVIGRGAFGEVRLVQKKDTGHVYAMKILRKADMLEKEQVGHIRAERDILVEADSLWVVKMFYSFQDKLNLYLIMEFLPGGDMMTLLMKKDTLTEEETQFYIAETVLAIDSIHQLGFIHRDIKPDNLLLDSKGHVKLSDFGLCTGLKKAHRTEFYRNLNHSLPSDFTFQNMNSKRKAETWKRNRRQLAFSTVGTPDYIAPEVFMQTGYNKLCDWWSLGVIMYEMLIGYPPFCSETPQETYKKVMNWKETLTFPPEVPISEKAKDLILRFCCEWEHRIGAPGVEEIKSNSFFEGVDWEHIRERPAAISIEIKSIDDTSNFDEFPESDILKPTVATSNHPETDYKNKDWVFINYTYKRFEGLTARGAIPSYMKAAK

With `CCOP(=O)(CN1CCC(COc2cc3nccc(Oc4ccc(NC(=O)C5(C(=O)Nc6ccc(F)cc6)CC5)cc4F)c3cc2OC)CC1)OCC` [Example 10, N1-[4-[[7-[[1-(diethoxyphosphorylmethyl)-4-piperidinyl]methoxyl]-6-methoxyl-4-quinolyl]oxyl]-3-fluorophenyl]-N1′-(4-fluorophenyl)cyclopropane-1,1-dicarboxamide] the “% Ctrl@1000 nM” value [1] was 69 % Ctrl, the “% Ctrl@1000 nM” value (AMPK-alpha2) was 100 % Ctrl and the “% Ctrl@1000 nM” value (AXL) was 8 % Ctrl. The “% Ctrl@1000 nM” value (CSF1R) was 0.25 % Ctrl, the “% Ctrl@1000 nM” value (DCAMKL1) was 91 % Ctrl and the “% Ctrl@1000 nM” value (DCAMKL2) was 100 % Ctrl. The “% Ctrl@1000 nM” value (DRAK1) was 100 % Ctrl, the “% Ctrl@1000 nM” value (EGFR(G719C)) was 75 % Ctrl and the “% Ctrl@1000 nM” value (ERK4) was 100 % Ctrl. The “% Ctrl@1000 nM” value (HCK) was 0.35 % Ctrl, the “% Ctrl@1000 nM” value (HIPK3) was 66 % Ctrl and the “% Ctrl@1000 nM” value [2] was 93 % Ctrl. The “% Ctrl@1000 nM” value [3] was 100 % Ctrl, the “% Ctrl@1000 nM” value (LATS2) was 96 % Ctrl and the “% Ctrl@1000 nM” value (MAPKAPK2) was 100 % Ctrl. For the same compound, the “% Ctrl@1000 nM” value (MST4) was 80 % Ctrl, the “% Ctrl@1000 nM” value (MUSK) was 13 % Ctrl and the “% Ctrl@1000 nM” value (NDR1) was 100 % Ctrl. The “% Ctrl@1000 nM” value (NEK1) was 100 % Ctrl, the “% Ctrl@1000 nM” value (NEK5) was 97 % Ctrl and the “% Ctrl@1000 nM” value (PAK3) was 32 % Ctrl. The “% Ctrl@1000 nM” value (PIK3CB) was 100 % Ctrl, the “% Ctrl@1000 nM” value (PIM2) was 67 % Ctrl and the “% Ctrl@1000 nM” value (PYK2) was 19 % Ctrl. The “% Ctrl@1000 nM” value (RIPK5) was 82 % Ctrl, the “% Ctrl@1000 nM” value [4] was 59 % Ctrl and the “% Ctrl@1000 nM” value [5] was 100 % Ctrl. The “% Ctrl@1000 nM” value (SRPK2) was 100 % Ctrl, the “% Ctrl@1000 nM” value (STK16) was 77 % Ctrl and the “% Ctrl@1000 nM” value (TEC) was 100 % Ctrl. The “% Ctrl@1000 nM” value (TGFBR1) was 100 % Ctrl, the “% Ctrl@1000 nM” value (TRAK) was 1.8 % Ctrl and the “% Ctrl@1000 nM” value (TTK) was 84 % Ctrl. The “% Ctrl@1000 nM” value (VRK2) was 100 % Ctrl.
